Data published in patent publication US9663525B2, “Pyrazolopyrimidinyl inhibitors of ubiquitin-activating enzyme” (Millennium Pharmaceuticals, Inc., priority 2012, dated 2017).

Target: recombinant human UAE (Homo sapiens (Human), UniProt P22314)
Experiment: Ubiquitin Activating Enzyme (UAE) HTRF assay, human UAE
Protocol: After incubation for 120 minutes, quantification of the FRET is performed on the Pherostar (BMG).
For compounds whose values are marked with an asterisk (*), mouse UAE was used. For all other compounds, human UAE was used.

Sequence of recombinant human UAE (P22314 whole entry): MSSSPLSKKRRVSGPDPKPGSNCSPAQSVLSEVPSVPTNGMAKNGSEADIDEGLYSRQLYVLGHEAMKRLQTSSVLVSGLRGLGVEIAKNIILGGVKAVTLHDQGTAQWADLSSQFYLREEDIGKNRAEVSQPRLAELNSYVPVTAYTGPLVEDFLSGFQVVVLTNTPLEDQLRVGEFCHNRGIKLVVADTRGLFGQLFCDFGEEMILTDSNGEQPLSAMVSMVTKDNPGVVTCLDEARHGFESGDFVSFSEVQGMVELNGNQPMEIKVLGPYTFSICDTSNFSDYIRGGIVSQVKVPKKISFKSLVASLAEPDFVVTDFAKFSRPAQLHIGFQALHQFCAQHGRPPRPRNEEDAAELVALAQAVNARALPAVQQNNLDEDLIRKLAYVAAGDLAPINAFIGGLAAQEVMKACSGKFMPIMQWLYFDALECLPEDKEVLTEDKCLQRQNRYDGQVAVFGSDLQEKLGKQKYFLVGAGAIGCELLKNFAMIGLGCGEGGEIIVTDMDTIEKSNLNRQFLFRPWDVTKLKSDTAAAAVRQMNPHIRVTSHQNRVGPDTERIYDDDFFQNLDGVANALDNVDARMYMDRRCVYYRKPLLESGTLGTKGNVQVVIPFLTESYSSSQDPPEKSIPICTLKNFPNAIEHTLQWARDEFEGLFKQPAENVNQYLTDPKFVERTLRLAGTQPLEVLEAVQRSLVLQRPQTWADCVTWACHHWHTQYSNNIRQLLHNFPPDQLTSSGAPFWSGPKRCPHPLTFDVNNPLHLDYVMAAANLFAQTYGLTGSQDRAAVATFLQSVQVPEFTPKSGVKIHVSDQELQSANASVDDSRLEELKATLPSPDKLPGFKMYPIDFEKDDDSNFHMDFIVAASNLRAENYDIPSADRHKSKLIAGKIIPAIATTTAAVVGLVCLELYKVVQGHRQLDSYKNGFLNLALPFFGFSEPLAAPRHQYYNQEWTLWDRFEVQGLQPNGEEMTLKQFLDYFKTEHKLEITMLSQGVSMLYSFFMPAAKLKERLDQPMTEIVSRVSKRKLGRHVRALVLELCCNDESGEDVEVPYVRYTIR

| IC50 [nM] | SMILES |
| --- | --- |
| < 10 | NS(=O)(=O)OC[C@H]1C[C@@H](Nc2ccnc3cc(-c4cccc(-c5ccccc5)c4)nn23)[C@H](O)[C@@H]1O (racemic) [Compound I-003, (rac)((1R,2R,3S,4R)-4-(2-(biphenyl-3-yl)pyrazolo[1,5-a]pyrimidin-7-ylamino)-2,3-dihydroxycyclopentyl)methyl rel-sulfamate] |
| < 10 | NS(=O)(=O)OC[C@H]1C[C@@H](Nc2ccnc3cc(-c4cccc(C(F)(F)F)c4)nn23)[C@H](O)[C@@H]1O (racemic) [Compound I-007, (rac)-((1R,2R,3S,4R)-2,3-Dihydroxy-4-((2-(3-(trifluoromethyl)phenyl)pyrazolo[1,5-a]pyrimidin-7-yl)amino)cyclopentyl)methyl rel-sulfamate] |
| 100 to 1000 | NS(=O)(=O)OC[C@H]1C[C@@H](Nc2cc(Cl)nc3cc(-c4ccc(Br)cc4)nn23)[C@H](O)[C@@H]1O (racemic) [Compound I-008, (rac)-((1R,2R,3S,4R)-4-(2-(4-bromophenyl)-5-chloropyrazolo[1,5-a]pyrimidin-7-ylamino)-2,3-dihydroxycyclopentyl)methyl rel-sulfamate] |
| 100 to 1000 | NS(=O)(=O)OC[C@H]1C[C@@H](Nc2cc(Cl)nc3cc(-c4cccc5ccccc45)nn23)[C@H](O)[C@@H]1O (racemic) [Compound I-009, (rac)-((1R,2R,3S,4R)-4-{[5-chloro-2-(1-naphthyl)pyrazolo[1,5-a]pyrimidin-7-yl]amino}-2,3-dihydroxycyclopentyl)methyl rel-sulfamate] |
| < 10 | NS(=O)(=O)OC[C@H]1C[C@@H](Nc2ccnc3cc(-c4cccc5c4oc4ccccc45)nn23)[C@H](O)[C@@H]1O (racemic) [Compound I-010, (rac)-((1R,2R,3S,4R)-4-(2-(dibenzo[b,d]furan-4-yl)pyrazolo[1,5-a]pyrimidin-7-ylamino)-2,3-dihydroxycyclopentyl)methyl rel-sulfamate] |
| 10 to 100 | NS(=O)(=O)OC[C@H]1C[C@@H](Nc2ccnc3cc(-c4ccc(Cl)cc4Cl)nn23)[C@H](O)[C@@H]1O (racemic) [Compound I-013, (rac)-[(1R,2R,3S,4R)-4-{[2-(2,4-dichlorophenyl)pyrazolo[1,5-a]pyrimidin-7-yl]amino}-2,3-dihydroxycylopentyl]methyl rel-sulfamate] |
| 100 to 1000 | COc1ccc(-c2cc3nc(Cl)cc(N[C@@H]4C[C@H](COS(N)(=O)=O)[C@@H](O)[C@H]4O)n3n2)cc1 (racemic) [Compound I-014, (rac)-[(1R,2R,3S,4R)-4-{[5-chloro-2-(4-methoxyphenyl)pyrazolo[1,5-a]-pyrimidin-7-yl]amino}-2,3-dihydroxycyclopentyl]methyl rel-sulfamate] |
| < 10 | CC(C)(C)c1cccc(-c2cc3nccc(N[C@@H]4C[C@H](COS(N)(=O)=O)[C@@H](O)[C@H]4O)n3n2)c1 (racemic) [Compound I-015, (rac)-((1R,2R,3S,4R)-4-((2-(3-(tert-Butyl)phenyl)pyrazolo[1,5-a]pyrimidin-7-yl)amino)-2,3-dihydroxycyclopentyl)methyl rel-sulfamate] |
| < 10 | NS(=O)(=O)OC[C@H]1C[C@@H](Nc2ccnc3cc(-c4ccc5ccccc5c4)nn23)[C@H](O)[C@@H]1O (racemic) [Compound I-016, (rac)-((1R,2R,3S,4R)-2,3-dihydroxy-4-(2-(naphthalen-2-yl)pyrazolo[1,5-a]pyrimidin-7-ylamino)cyclopentyl)methyl rel-sulfamate] |
| < 10 | NS(=O)(=O)OC[C@H]1C[C@@H](Nc2ccnc3cc(-c4cccc5cccnc45)nn23)[C@H](O)[C@@H]1O (racemic) [Compound I-017, (rac)-((1R,2R,3S,4R)-2,3-Dihydroxy-4-((2-(quinolin-8-yl)pyrazolo[1,5-a]pyrimidin-7-yl)amino)cyclopentyl)methyl rel-sulfamate] |
| < 10 | NS(=O)(=O)OC[C@H]1C[C@@H](Nc2ccnc3cc(-c4cncc5ccccc45)nn23)[C@H](O)[C@@H]1O (racemic) [Compound I-018, (rac)-((1R,2R,3S,4R)-2,3-dihydroxy-4-(2-(isoquinolin-4-yl)pyrazolo[1,5-a]pyrimidin-7-ylamino)cyclopentyl)methyl rel-sulfamate] |
| < 10 | NS(=O)(=O)OC[C@H]1C[C@@H](Nc2ccnc3cc(-c4ccc5oc6ccccc6c5c4)nn23)[C@H](O)[C@@H]1O (racemic) [Compound I-019, (rac)-((1R,2R,3S,4R)-4-(2-(dibenzo[b,d]furan-2-yl)pyrazolo[1,5-a]pyrimidin-7-ylamino)-2,3-dihydroxycyclopentyl)methyl rel-sulfamate] |
| < 10 | COc1ccc(Cl)cc1-c1cc2nccc(N[C@@H]3C[C@H](COS(N)(=O)=O)[C@@H](O)[C@H]3O)n2n1 (racemic) [Compound I-020, (rac)-((1R,2R,3S,4R)-4-(2-(5-chloro-2-methoxyphenyl)pyrazolo[1,5-a]pyrimidin-7-ylamino)-2,3-dihydroxycyclopentyl)methyl rel-sulfamate] |
| < 10 | Cc1ccc(Cl)cc1-c1cc2nccc(N[C@@H]3C[C@H](COS(N)(=O)=O)[C@@H](O)[C@H]3O)n2n1 (racemic) [Compound I-021, (rac)-((1R,2R,3S,4R)-4-(2-(5-chloro-2-methylphenyl)pyrazolo[1,5-a]pyrimidin-7-ylamino)-2,3-dihydroxycyclopentyl)methyl rel-sulfamate] |
| < 10 | NS(=O)(=O)OC[C@H]1C[C@@H](Nc2ccnc3cc(-c4csc5ccccc45)nn23)[C@H](O)[C@@H]1O (racemic) [Compound I-022, (rac)-((1R,2R,3S,4R)-4-(2-(benzo[b]thiophen-3-yl)pyrazolo[1,5-a]pyrimidin-7-ylamino)-2,3-dihydroxycyclopentyl)methyl rel-sulfamate] |
| 10 to 100 | CC1(C)COc2c(-c3cc4nccc(N[C@@H]5C[C@H](COS(N)(=O)=O)[C@@H](O)[C@H]5O)n4n3)cccc21 (racemic) [Compound I-023, (rac)-((1R,2R,3S,4R)-4-(2-(3,3-dimethyl-2,3-dihydrobenzofuran-7-yl)pyrazolo[1,5-a]pyrimidin-7-ylamino)-2,3-dihydroxycyclopentyl)methyl rel-sulfamate] |
| < 10 | NS(=O)(=O)OC[C@H]1C[C@@H](Nc2ccnc3cc(-c4cc5ccccc5[nH]4)nn23)[C@H](O)[C@@H]1O (racemic) [Compound I-024, (rac)-((1R,2R,3S,4R)-4-(2-(1H-indol-2-yl)pyrazolo[1,5-a]pyrimidin-7-ylamino)-2,3-dihydroxycyclopentyl)methyl rel-sulfamate] |
| 10 to 100 | NS(=O)(=O)OC[C@H]1C[C@@H](Nc2ccnc3cc(-c4cnc5ccccc5c4)nn23)[C@H](O)[C@@H]1O (racemic) [Compound I-025, (rac)-((1R,2R,3S,4R)-2,3-dihydroxy-4-(2-(quinolin-3-yl)pyrazolo[1,5-a]pyrimidin-7-ylamino)cyclopentyl)methyl rel-sulfamate] |
| < 10 | NS(=O)(=O)OC[C@H]1C[C@@H](Nc2ccnc3cc(-c4cccc5cnccc45)nn23)[C@H](O)[C@@H]1O (racemic) [Compound I-027, (rac)-((1R,2R,3S,4R)-2,3-dihydroxy-4-(2-(isoquinolin-5-yl)pyrazolo[1,5-a]pyrimidin-7-ylamino)cyclopentyl)methyl rel-sulfamate] |
